In patent publication US20250179059A1 (The Regents of the University of California, priority 2021, published 2025):

Target: T1, human BRD4 bromodomain II (Homo sapiens, UniProt O60885)
T1 construct: human BRD4 bromodomain II [based on Genbank NM_058243, residues 349-460]; host or cells: E. coli
Experiment: Bromodomain binding assay (AlphaScreen), BRD4 BDII
Conditions: AlphaScreen assay, Table C2; read-out: BRD4 BDII IC50
How it was run: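 Tagged BRD4 BDI or BDII constructs, expressed in E. coli, competed against a K5/K8/K12/K16-acetylated biotin-H4 peptide. Proximity signal between bead pairs after room-temperature incubations gave concentration-response curves, from which IC50 was derived.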

SMILES	IC50
CC(=O)Nc1ccc(-c2cccc(-c3ccc(OC4CCC4)cc3)c2O)cc1F [Example 117, N-(4″-Cyclobutoxy-3-fluoro-2′-hydroxy-[1,1′:3′,1″-terphenyl]-4-yl)acetamide]	> 100 nM
CC(=O)Nc1ccc(-c2cccc(-c3ccc4occc4c3)c2O)cc1F [Example 119, N-(3′-(Benzofuran-5-yl)-3-fluoro-2′-hydroxy-[1,1′-biphenyl]-4-yl)acetamide]	> 100 nM
CC(=O)Nc1ccc(-c2cccc(-c3ccc4ncccc4c3)c2O)cc1F [Example 120, N-(3-Fluoro-2′-hydroxy-3′-(quinolin-6-yl)-[1,1′-biphenyl]-4-yl)acetamide]	10 to 100 nM
CC(=O)Nc1ccc(-c2cccc(-c3ccc4c(c3)ncn4C)c2O)cc1F [Example 121, N-(3-Fluoro-2′-hydroxy-3′-(1-methyl-1H-benzo[d]imidazol-5-yl)-[1,1′-biphenyl]-4-yl)acetamide]	> 100 nM
CC(=O)Nc1ccc(-c2cccc(-c3ccc4ocnc4c3)c2O)cc1F [Example 122, N-(3′-(Benzo[d]oxazol-5-yl)-3-fluoro-2′-hydroxy-[1,1′-biphenyl]-4-yl)acetamide]	> 100 nM
CC(=O)Nc1ccc(-c2cccc(-c3ccc4[nH]ccc4c3)c2O)cc1F [Example 123, N-(3-Fluoro-2′-hydroxy-3′-(1H-indol-5-yl)-[1,1′-biphenyl]-4-yl)acetamide]	> 100 nM
CC(=O)Nc1ccc(-c2cccc(-c3cnc4[nH]ccc4c3)c2O)cc1F [Example 124, N-(3-fluoro-2′-hydroxy-3′-(1H-pyrrolo[2,3-b]pyridin-5-yl)-[1,1′-biphenyl]-4-yl)acetamide]	> 100 nM
CC(=O)Nc1ccc(-c2cccc(-c3cnc4c(ccn4C)c3)c2O)cc1F [Example 125, N-(3-Fluoro-2′-hydroxy-3′-(1-methyl-1H-pyrrolo[2,3-b]pyridin-5-yl)-[1,1′-biphenyl]-4-yl)acetamide]	> 100 nM
COc1cc(-c2cccc(-c3cc(F)c(NC(C)=O)c(F)c3)c2O)ccc1NC(C)=O [Example 128, N,N′-(3,5-Difluoro-2′-hydroxy-3″-methoxy-[1,1′:3′,1″-terphenyl]-4,4″-diyl)diacetamide]	10 to 100 nM
CC(=O)Nc1ccc(-c2cccc(-c3ccc4c(ccn4C)c3)c2O)cc1F [Example 130, N-(3-Fluoro-2′-hydroxy-3′-(1-methyl-1H-indol-5-yl)-[1,1′-biphenyl]-4-yl)acetamide]	> 100 nM
CC(=O)Nc1ccc(-c2cccc(-c3ccc4[nH]cnc4c3)c2O)cc1F [Example 131, N-(3′-(1H-Benzo[d]imidazol-5-yl)-3-fluoro-2′-hydroxy-[1,1′-biphenyl]-4-yl)acetamide]	10 to 100 nM
COc1cc(-c2cccc(-c3cc(Cl)c(NC(C)=O)c(Cl)c3)c2O)ccc1NC(C)=O [Example 132, N,N′-(3,5-Dichloro-2′-hydroxy-3″-methoxy-[1,1′:3′,1″-terphenyl]-4,4″-diyl)diacetamide]	10 to 100 nM
COc1cc(-c2cccc(-c3cc(F)c(N4CCCC4=O)c(F)c3)c2O)ccc1NC(C)=O [Example 133, N-(3″,5″-Difluoro-2′-hydroxy-3-methoxy-4″-(2-oxopyrrolidin-1-yl)-[1,1′:3′,1″-terphenyl]-4-yl)acetamide]	10 to 100 nM
CC(=O)Nc1ccc(-c2cccc(-c3ccc4c(c3)CCCO4)c2O)cc1F [Example 136, N-(3′-(chroman-6-yl)-3-fluoro-2′-hydroxy-[1,1′-biphenyl]-4-yl)acetamide]	> 100 nM
CC(=O)Nc1ccc(-c2cccc(-c3ccc(NC(C)=O)c(C(F)(F)F)c3)c2O)cc1F [Example 138, N,N′-(3-fluoro-2′-hydroxy-3″-(trifluoromethyl)-[1,1′:3′,1″-terphenyl]-4,4″-diyl)diacetamide]	> 100 nM
CC(=O)Nc1ccc(-c2cccc(-c3cc(C)c(NC(C)=O)c(F)c3)c2O)cc1F [Example 139, N,N′-(3,3″-difluoro-2′-hydroxy-5-methyl-[1,1′:3′,1″-terphenyl]-4,4″-diyl)diacetamide]	> 100 nM
CC(=O)Nc1ccc(-c2cccc(-c3ccc4ncncc4c3)c2O)cc1F [Example 142, N-(3-fluoro-2′-hydroxy-3′-(quinazolin-6-yl)-[1,1′-biphenyl]-4-yl)acetamide]	10 to 100 nM
CC(=O)Nc1ccc(-c2cccc(-c3ccc4cnccc4c3)c2O)cc1F [Example 145, N-(3-fluoro-2′-hydroxy-3′-(isoquinolin-6-yl)-[1,1′-biphenyl]-4-yl)acetamide]	10 to 100 nM
COc1cc(F)cc(-c2cccc(-c3ccc(NC(C)=O)c(F)c3)c2O)c1 [Example 146, N-(3,3″-difluoro-2′-hydroxy-5″-methoxy-[1,1′:3′,1″-terphenyl]-4-yl)acetamide]	> 100 nM
COc1ccc(C)c(-c2cccc(-c3ccc(NC(C)=O)c(F)c3)c2O)c1 [Example 147, N-(3-fluoro-2′-hydroxy-5″-methoxy-2″-methyl-[1,1′:3′,1″-terphenyl]-4-yl)acetamide]	> 100 nM

Results, then the molecule that gave them:

IC50	SMILES
> 100 nM	CCC(=O)Nc1ccc(-c2cccc(-c3cc(N4CCNCC4)no3)c2O)cc1 [Example 116, N-(2′-Hydroxy-3′-(3-(piperazin-1-yl)isoxazol-5-yl)-[1,1′-biphenyl]-4-yl)propionamide 2,2,2-trifluoroacetate]
> 100 nM	CC(=O)Nc1ccc(-c2cccc(-c3ccc(OC4CCCC4)cc3)c2O)cc1F [Example 118, N-(4″-(Cyclopentyloxy)-3-fluoro-2′-hydroxy-[1,1′:3′,1″-terphenyl]-4-yl)acetamide]
10 to 100 nM	CC(=O)Nc1c(F)cc(-c2cccc(-c3cc(N4CCNCC4)no3)c2O)cc1Cl [Example 126, N-(3-Chloro-5-fluoro-2′-hydroxy-3′-(3-(piperazin-1-yl)isoxazol-5-yl)-[1,1′-biphenyl]-4-yl)acetamide 2,2,2-trifluoroacetate]
10 to 100 nM	COc1cc(-c2cccc(-c3ccc(NC(C)=O)cc3)c2O)ccc1NC(C)=O [Example 127, N,N′-(2′-Hydroxy-3-methoxy-[1,1′:3′,1″-terphenyl]-4,4″-diyl)diacetamide]
10 to 100 nM	COc1cc(-c2cccc(-c3ccc(N4CCCC4=O)c(F)c3)c2O)ccc1NC(C)=O [Example 129, N-(3″-Fluoro-2′-hydroxy-3-methoxy-4″-(2-oxopyrrolidin-1-yl)-[1,1′:3′,1″-terphenyl]-4-yl)acetamide]
> 100 nM	CC(=O)Nc1ccc(-c2cc(F)cc(-c3cnn(C4CCN(C)CC4)c3)c2O)cc1 [Example 134, N-(5′-fluoro-2′-hydroxy-3′-(1-(1-methylpiperidin-4-yl)-1H-pyrazol-4-yl)-[1,1′-biphenyl]-4-yl)acetamide]
> 100 nM	CC(=O)Nc1ccc(-c2cccc(-c3ccc4c(c3)CCN4)c2O)cc1F [Example 137, N-(3-fluoro-2′-hydroxy-3′-(indolin-5-yl)-[1,1′-biphenyl]-4-yl)acetamide]
10 to 100 nM	O=C1CCCN1c1c(F)cc(-c2cccc(-c3cc(N4CCNCC4)no3)c2O)cc1F [Example 140, 1-(3,5-difluoro-2′-hydroxy-3′-(3-(piperazin-1-yl)isoxazol-5-yl)-[1,1′-biphenyl]-4-yl)pyrrolidin-2-one]
> 100 nM	COC(=O)Nc1ccc(-c2cccc(-c3cc(N4CCNCC4)no3)c2O)cc1 [Example 141, Methyl (2′-hydroxy-3′-(3-(piperazin-1-yl)isoxazol-5-yl)-[1,1′-biphenyl]-4-yl)carbamate 2,2,2-trifluoroacetate]
> 100 nM	CC(=O)Nc1ccc(-c2cccc(-c3cc(N4CCN(S(C)(=O)=O)CC4)no3)c2O)cc1 [Example 143, N-(2′-hydroxy-3′-(3-(4-(methylsulfonyl)piperazin-1-yl)isoxazol-5-yl)-[1,1′-biphenyl]-4-yl)acetamide]
> 100 nM	CC(=O)Nc1ccc(-c2cccc(-c3ccc4c(c3)OCCN4C)c2O)cc1F [Example 144, N-(3-fluoro-2′-hydroxy-3′-(4-methyl-3,4-dihydro-2H-benzo[b][1,4]oxazin-7-yl)-[1,1′-biphenyl]-4-yl)acetamide]
> 100 nM	CC(=O)Nc1ccc(-c2cccc(-c3nnc(N4CCNCC4)[nH]3)c2O)cc1F [Example 148, N-(3-fluoro-2′-hydroxy-3′-(5-(piperazin-1-yl)-4H-1,2,4-triazol-3-yl)-[1,1′-biphenyl]-4-yl)acetamide]
> 100 nM	CNC(=O)Nc1ccc(-c2cccc(-c3cc(N4CCNCC4)no3)c2O)cc1 [Example 149, 1-(2′-hydroxy-3′-(3-(piperazin-1-yl)isoxazol-5-yl)-[1,1′-biphenyl]-4-yl)-3-methylurea]
10 to 100 nM	CC(=O)Nc1ccc(-c2cccc(-c3cc(N4CCN(C)CC4)no3)c2O)cc1F [Example 150, N-(3-fluoro-2′-hydroxy-3′-(3-(4-methylpiperazin-1-yl)isoxazol-5-yl)-[1,1′-biphenyl]-4-yl)acetamide]
10 to 100 nM	CCN1CCN(c2cc(-c3cccc(-c4ccc(NC(C)=O)c(F)c4)c3O)on2)CC1 [Example 151, N-(3′-(3-(4-ethylpiperazin-1-yl)isoxazol-5-yl)-3-fluoro-2′-hydroxy-[1,1′-biphenyl]-4-yl)acetamide]
10 to 100 nM	CC(=O)Nc1ccc(-c2cccc(-c3cc(N4CCN(C(C)C)CC4)no3)c2O)cc1F [Example 152, N-(3-fluoro-2′-hydroxy-3′-(3-(4-isopropylpiperazin-1-yl)isoxazol-5-yl)-[1,1′-biphenyl]-4-yl)acetamide 2,2,2-trifluoroacetate]
10 to 100 nM	CC(=O)Nc1ccc(-c2cccc(-c3cc(N4CCN(C5COC5)CC4)no3)c2O)cc1F [Example 153, N-(3-fluoro-2′-hydroxy-3′-(3-(4-(oxetan-3-yl)piperazin-1-yl)isoxazol-5-yl)-[1,1′-biphenyl]-4-yl)acetamide]
10 to 100 nM	CC(=O)Nc1c(Cl)cc(-c2cccc(-c3cc(N4CCNCC4)no3)c2O)cc1Cl [Example 154, N-(3,5-dichloro-2′-hydroxy-3′-(3-(piperazin-1-yl)isoxazol-5-yl)-[1,1′-biphenyl]-4-yl)acetamide]
